Experiment [1] relates to SKCO1 and GEO cells. The experiment can be described thus: Cell proliferation assay with or without gefitinib. The experiment is classed as cell-based. The settings on record: PRMT1-overexpressing and vector control cells. The text has this: (§1) FIGS. 1A-F. PRMT1-mediated cell proliferation and colony formation are EGFR signaling dependent. FIG. 1A. Cell proliferation assay of SKCO1 (left) and GEO (right) cells exogenously expressing PRMT1, PRMT1 shRNA, and control vector. In the top graphs, the top lines represent PRMT1 and the bottom lines represent Vector. In the bottom graphs, the top lines represent Vector and the bottom lines represent PRMT1 shRNA. P<0.05, t-test. FIG. 1B. Soft agar assay of SKCO1 cells exogenously expressing PRMT1, PRMT1 shRNA and control vector. Representative images from the anchorage-independent growth assay are shown above. *P<0.05, **P<0.005, t-test. FIG. 1C. Cell proliferation assay of SKCO1 (top) and GEO (bottom) cells expressing PRMT1 or vector control with or without gefitinib treatment. In both graphs, the top solid lines represent PRMT1 and the bottom solid lines represent Vector. In the top graph, the top dashed line represents PRMT1+gefitinib and the bottom dashed line represents Vector+gefitinib. P<0.05, t-test. FIG. 1D. Soft agar assay of SKCO1 exogenously expressing PRMT1 and control vector with or without gefitinib treatment. **P<0.005, t-test. FIG. 1E. […] All quantitative data were generated from a minimum of three replicates. Data are expressed as mean±s.d.
Cells were then trypsinized and cell numbers counted on a daily basis.

Experiment [2] concerns SKCO1 cells. In words: Anchorage-independent growth (soft agar) assay for colony formation with or without gefitinib. The settings on record: PRMT1-overexpressing and vector control cells. It is filed as cell-based.
Excerpt: as §1, with “1D.” for “1D. Soft agar assay of SKCO1 exogenously expressing PRMT1 and control vector with or without gefitinib treatment. **P<0.005, t-test. FIG. 1E.”
The base layer of cell growth matrix containing DMEM/F12 medium, 10% FBS, and 0.5% agar was paved in 6-well plates (1.5 ml per well). […] Colonies with a diameter larger than 0.5 mm were counted.

As for `COc1cc2ncnc(Nc3ccc(F)c(Cl)c3)c2cc1OCCCN1CCOCC1` [gefitinib], the cell proliferation result in experiment [1] is given as “significantly inhibited”. Moreover, the colony formation entry in experiment [2] is listed as “significantly inhibited”.

The values are drawn from patent US11452775B2, “Detection of arginine methylation of EGFR for prediction of resistance to therapy” (Board of Regents, The University of Texas System, priority 2013, dated 2022).
